Experiments:
[1] = test system: histamine-induced vascular permeability in guinea pig conjunctiva; test: histamine-induced vascular permeability in guinea pig conjunctiva, topical ocular pretreatment; format: in vivo, guinea pig (Male Dunkin Hartley)
Protocol: The topical ocular antihistaminic effect of emedastine difumarate was assessed in a model of histamine induced vascular permeability in guinea pig conjunctiva. The potency of emedastine difumarate in this model was then compared with those of reference antihistamines.
Male Dunkin Hartley Viral Antibody Free outbred guinea pigs (Charles River Labs, Portage, Mich.), weighing approximately 250-350 grams (6/group) were injected intravenously (i.v.) via the marginal ear vein with 1.0 mL of Evans Blue dye (1.0 mg/mL). Forty-five (45) minutes post dye injection, 20 μL of test compound or saline vehicle was applied topically to one eye of each experimental animal. […] Responses were quantitated as described by Yanni et al. in Int. Arch. Allergy Immunol., 101:102-106 (1993). Response scores from the treated groups were then compared with scores obtained in the saline-treated group using Dunnett's t test (Dunnett C. W., "A multiple comparison procedure for comparing treatments with a control." J. Am. Stat. Assoc. 50:1096-1121(1955)). Regression analysis was used to determine relative potency (Bliss, C. and E. Gjorgy. In Vitamin Methods, Vol. 2, pp. 445-610, Academic Press, Inc., New York, 1951.).

allergic conjunctivitis = conditions: without the addition of a vasoconstrictor; cited from earlier work
[2] = as compared to systemic activity; cited from earlier work
[3] = 1 min pretreatment, relative to emedastine difumarate = 1.0, (95% Confidence Limits)
[4] = 30 min pretreatment, relative to emedastine difumarate = 1.0, (95% Confidence limits)
[5] = 1 min pretreatment, 0.001 wt %, ketotifen/pheniramine experiment (NaCl 276 ± 10)
[6] = 1 min pretreatment, 0.01 wt %, ketotifen/pheniramine experiment (NaCl 276 ± 10)
[7] = 1 min pretreatment, 0.1 wt %, ketotifen/pheniramine experiment (NaCl 276 ± 10)

**Q.** Which results are given for `c1ccc(CN(CC2=NCCN2)c2ccccc2)cc1` [Antazoline, reference compound]?
**A.** Wheal Area × Intensity ([1]; 1 min pretreatment, 0.0001 wt %, antazoline experiment (NaCl 285 ± 19)): 244 ± 14; Wheal Area × Intensity ([1]; 1 min pretreatment, 0.001 wt %, antazoline experiment (NaCl 285 ± 19)): 178 ± 42; Wheal Area × Intensity ([1]; 1 min pretreatment, 0.01 wt %, antazoline experiment (NaCl 285 ± 19)): 115 ± 6; Potency [1, 3]: 0.060; Wheal Area × Intensity (x ± S.D.) ([1]; 30 min pretreatment, 0.01 wt %, antazoline experiment (NaCl 287 ± 20)): 205 ± 61; Wheal Area × Intensity (x ± S.D.) ([1]; 30 min pretreatment, 0.1 wt %, antazoline experiment (NaCl 287 ± 20)): 145 ± 26; Wheal Area × Intensity (x ± S.D.) ([1]; 30 min pretreatment, 1.0 wt %, antazoline experiment (NaCl 287 ± 20)): 91 ± 27; Potency [1, 4]: ~0.00017

**Q.** For `CN(C)CCC(c1ccc(Br)cc1)c1ccccn1` (stereo not shown) [Brompheniramine, reference compound], which “Wheal Area × Intensity (X ± S.D.)” value ([1]; 30 min pretreatment, 0.0001 wt %, brompheniramine experiment (NaCl 219 ± 20)) is on record?
**A.** 167 ± 26

**Q.** What about the “Wheal Area × Intensity (X ± S.D.)” value ([1]; 30 min pretreatment, 0.001 wt %, brompheniramine experiment (NaCl 219 ± 20)) of the same compound?
**A.** 92 ± 44

**Q.** What about the “Wheal Area × Intensity (x ± S.D.)” value ([1]; 30 min pretreatment, 0.01 wt %, brompheniramine experiment (NaCl 219 ± 20)) of the same compound?
**A.** 5 ± 8

**Q.** And the Potency [1, 4]?
**A.** 0.14 (0.078-0.263)

**Q.** Which “Wheal Area × Intensity (X ± S.D.)” value ([1]; 30 min pretreatment, 0.0001 wt %, chlorpheniramine experiment (NaCl 217 ± 35)) does the source give for `CN(C)CCC(c1ccc(Cl)cc1)c1ccccn1` (stereo not shown) [Chlorpheniramine, reference compound] here?
**A.** 161 ± 57

**Q.** And the “Wheal Area × Intensity (X ± S.D.)” value ([1]; 30 min pretreatment, 0.001 wt %, chlorpheniramine experiment (NaCl 217 ± 35))?
**A.** 76 ± 22

**Q.** What about the “Wheal Area × Intensity (x ± S.D.)” value ([1]; 30 min pretreatment, 0.01 wt %, chlorpheniramine experiment (NaCl 217 ± 35)) of the same compound?
**A.** 9 ± 12

**Q.** And the Potency [1, 4]?
**A.** 0.13 (0.056-0.295)

**Q.** What does the source list for `CN1CCC[C@@H]1CCO[C@](C)(c1ccccc1)c1ccc(Cl)cc1` [Clemastine, reference compound]?
**A.** Wheal Area × Intensity (X ± S.D.) ([1]; 30 min pretreatment, 0.00001 wt %, clemastine experiment (NaCl 350 ± 31)): 283 ± 37; Wheal Area × Intensity (X ± S.D.) ([1]; 30 min pretreatment, 0.0001 wt %, clemastine experiment (NaCl 350 ± 31)): 131 ± 36; Wheal Area × Intensity (X ± S.D.) ([1]; 30 min pretreatment, 0.001 wt %, clemastine experiment (NaCl 350 ± 31)): 65 ± 28; Wheal Area × Intensity (x ± S.D.) ([1]; 30 min pretreatment, 0.01 wt %, clemastine experiment (NaCl 350 ± 31)): 18 ± 8

**Q.** With `CN1CCC(=C2c3ccccc3CC(=O)c3sccc32)CC1` [Ketotifen, reference compound] as the compound, how does the “Wheal Area × Intensity” value ([1]; 1 min pretreatment, 0.0001 wt %, ketotifen/pheniramine experiment (NaCl 276 ± 10)) read?
**A.** 210 ± 11

**Q.** And the “Wheal Area × Intensity” value [1, 5]?
**A.** 138 ± 21

**Q.** And the “Wheal Area × Intensity” value [1, 6]?
**A.** 89 ± 22

**Q.** What about the “Wheal Area × Intensity” value [1, 7] of the same compound?
**A.** 33 ± 22

**Q.** What about the Potency [1, 3] of the same compound?
**A.** 0.288

**Q.** What about the “Wheal Area × Intensity (x ± S.D.)” value ([1]; 30 min pretreatment, 0.0000007 wt %, ketotifen experiment (NaCl 214 ± 41)) of the same compound?
**A.** 157 ± 66

**Q.** What about the “Wheal Area × Intensity (x ± S.D.)” value ([1]; 30 min pretreatment, 0.000007 wt %, ketotifen experiment (NaCl 214 ± 41)) of the same compound?
**A.** 108 ± 52

**Q.** What about the “Wheal Area × Intensity (x ± S.D.)” value ([1]; 30 min pretreatment, 0.00007 wt %, ketotifen experiment (NaCl 214 ± 41)) of the same compound?
**A.** 61 ± 26

**Q.** What about the Potency ([1]; topical, 0.5 h) of the same compound?
**A.** 3.72 (0.973-11.892)

**Q.** What does the source list for `C[C@@H]1CN([C@H]2CC[C@](C#N)(c3ccc(F)cc3)CC2)CC[C@]1(C(=O)O)c1ccccc1` [Levocabastine, reference compound]?
**A.** clinical activity in patients with allergic conjunctivitis (allergic conjunctivitis): exhibits clinical activity; attenuation of histamine-induced vascular permeability response ([1]; 0.05%, topically 1 minute before histamine injection): failed to attenuate significantly; Wheal Area × Intensity ([1]; 1 min pretreatment, 0.05 wt %, levocabastine experiment (NaCl 336 ± 78)): 231 ± 58; Wheal Area × Intensity (x ± S.D.) ([1]; 30 min pretreatment, 0.0005 wt %, levocabastine/pheniramine experiment (NaCl 252 ± 30)): 189 ± 66; Wheal Area × Intensity (x ± S.D.) ([1]; 30 min pretreatment, 0.005 wt %, levocabastine/pheniramine experiment (NaCl 252 ± 30)): 116 ± 67; Wheal Area × Intensity (x ± S.D.) ([1]; 30 min pretreatment, 0.05 wt %, levocabastine/pheniramine experiment (NaCl 252 ± 30)): 56 ± 41; Potency [1, 4]: 0.01 (0.006-0.038)

**Q.** With `CN(C)CCC(c1ccccc1)c1ccccn1` (stereo not shown) [Pheniramine, reference compound] as the compound, how does the “Wheal Area × Intensity” value [1, 5] read?
**A.** 181 ± 16

**Q.** What about the “Wheal Area × Intensity” value [1, 6] of the same compound?
**A.** 87 ± 40

**Q.** What about the “Wheal Area × Intensity” value [1, 7] of the same compound?
**A.** 59 ± 23

**Q.** What about the Potency [1, 3] of the same compound?
**A.** 0.130

**Q.** What about the “Wheal Area × Intensity (x ± S.D.)” value ([1]; 30 min pretreatment, 0.003 wt %, levocabastine/pheniramine experiment (NaCl 252 ± 30)) of the same compound?
**A.** 175 ± 53

**Q.** What about the “Wheal Area × Intensity (x ± S.D.)” value ([1]; 30 min pretreatment, 0.03 wt %, levocabastine/pheniramine experiment (NaCl 252 ± 30)) of the same compound?
**A.** 122 ± 33

**Q.** What about the Potency [1, 4] of the same compound?
**A.** ~0.0028

**Q.** For `COc1ccc(CCN2CCC(Nc3nc4ccccc4n3Cc3ccc(F)cc3)CC2)cc1` [astemizole], which local ocular activity [2] is on record?
**A.** greatly reduced local ocular activity

**Q.** For `CCOC(=O)N1CCC(=C2c3ccc(Cl)cc3CCc3cccnc32)CC1` [loratadine], which local ocular activity [2] is on record?
**A.** greatly reduced local ocular activity

**Q.** For `CC(C)(C)c1ccc(C(O)CCCN2CCC(C(O)(c3ccccc3)c3ccccc3)CC2)cc1` (stereo not shown) [terfenadine], which local ocular activity [2] is on record?
**A.** little or no local ocular activity
